In ChEMBL document CHEMBL4699397, “Development of potent CPP6-gemcitabine conjugates against human prostate cancer cell line (PC-3)” (RSC Med Chem, 2020):
*1 amine or outer side, *2 acyl side, *3 side chain or, on linkers, in order; H or OH if unused. Where a SMILES comes first, the peptide text is derived from it. The star is where a group is joined. X1 = O=c1nc(N*)ccn1[C@@H]1O[C@H](CO)[C@@H](O)C1(F)F; Suc = O=C(CCC(=O)[*:2])[*:1]

Experiments:
BXPC-3 = assay: Cytotoxicity against human BXPC-3 cells assessed as inhibition of cell growth measured after 72 hrs by SRB assay; type: functional, cell-based; conditions: BXPC-3, 72 h
MCF7 = assay: Cytotoxicity against human MCF7 cells assessed as inhibition of cell growth measured after 72 hrs by MTT assay; type: functional, cell-based; conditions: MCF7, 72 h
PC-3 = assay: Cytotoxicity against human PC-3 cells assessed as inhibition of cell growth measured after 72 hrs by MTT assay; type: functional, cell-based; conditions: PC-3, 72 h
[1] = Half life of the compound; type: physicochemical

half-life [1] [min]	Molecule	IC50 (BXPC-3) [nM]	IC50 (MCF7) [nM]	IC50 (PC-3) [nM]
–	CSCC[C@H](NC(=O)[C@@H](NC(=O)[C@@H]1CCCN1C(=O)[C@H](CC(C)C)NC(=O)[C@H](CCCCN)NC(=O)[C@@H](N)Cc1c[nH]c2ccccc12)C(C)C)C(N)=O	> 1000	223	> 1000
–	CSCC[C@H](NC(=O)[C@@H](NC(=O)[C@@H]1CCCN1C(=O)[C@H](CC(C)C)NC(=O)[C@H](CCCCN)NC(=O)CCC(=O)Nc1ccn([C@@H]2O[C@H](CO)[C@@H](O)C2(F)F)c(=O)n1)C(C)C)C(=O)N[C@@H](Cc1c[nH]c2ccccc12)C(N)=O ({X1-Suc}-KLPVMW-NH2)	170	6.9	> 1000
–	CSCC[C@H](NC(=O)[C@@H](NC(=O)[C@@H]1CCCN1C(=O)[C@H](CC(C)C)NC(=O)[C@H](CCCCN)NC(=O)[C@H](Cc1c[nH]c2ccccc12)NC(=O)CCC(=O)Nc1ccn([C@@H]2O[C@H](CO)[C@@H](O)C2(F)F)c(=O)n1)C(C)C)C(N)=O ({X1-Suc}-WKLPVM-NH2)	180	5.1	15
–	CC(C)C[C@H](NC(=O)[C@@H](NC(=O)[C@@H]1CCCN1C(=O)[C@@H](NC(=O)[C@H](Cc1c[nH]c2ccccc12)NC(=O)CCC(=O)Nc1ccn([C@@H]2O[C@H](CO)[C@@H](O)C2(F)F)c(=O)n1)C(C)C)[C@@H](C)O)C(=O)N[C@@H](CCCCN)C(N)=O ({X1-Suc}-WVPTLK-NH2)	200	4	14
8	Nc1ccn([C@@H]2O[C@H](CO)[C@@H](O)C2(F)F)c(=O)n1 [GEMCITABINE]	130	1.4	74
–	CN(C)C(=N)NC(=N)N [METFORMIN]	–	9.9	189
–	CC/C(=C(\c1ccccc1)c1ccc(OCCN(C)C)cc1)c1ccccc1 [TAMOXIFEN]	–	–	> 1000
–	H-KLPVMW-NH2	> 1000	> 1000	> 1000
–	H-WVPTLK-NH2	> 1000	> 1000	> 1000
